Where two headings read alike, the source gives them in different places.
Columns and labels:
Candida tropicalis = experiment: Intracellular infection model: J77468 macrophages infected with Candida tropicalis; format: cell-based; settings: 2 % de sérum de veau foetal
Procedure: (§1) La lignée continue de macrophages J77468 d'origine murine provient d'un clonage de la souche J774 ATCC, et est cultivée en milieu RPMI 1640 additionné de glutamine 2 mM, 10% de sérum de veau foetal (décomplémenté 60 min. à 56°) et de 10 mM Hepes (pH 7.2). Une suspension de 5 10^6 cellules/ml sont infectées avec une culture de Candida tropicalis (5 10^5 levures/ml) provenant d'une culture de nuit dans de la casitone. Le milieu d'infection utilisé est du RPMI contenant 2 % de sérum de veau nouveau-né et 10 mM Hepes (pH 7.2).
(§2) Après 3 h d'incubation à 37° dans un mélange d'air 10 % C02, la phagocytose des levures est complète. La suspension cellulaire macrophages-Candida est centrifugée, lavée abondamment et répartie à raison de 10^5 macrophages infectés/alvéole dans des boîtes à 24 alvéoles contenant une lamelle de verre (diamètre 14 mm). Après 3 h de phagocytose (To), sur 100 macrophages, 32 contiennent de 1 à 6 Candida/macrophage, l'infection moyenne étant de 2 Candida/macrophage.
(§3) Toutes les levures ont été phagocytées sauf rares exceptions (estimation au microscope optique après coloration au May-Grünwald Giemsa). Douze concentrations différentes des drogues de référence et des drogues encapsulées dans les LDL sont distribuées dans les boîtes contenant les macrophages infectés.
(§4) L'évaluation de l'efficacité d'une drogue se fait à chaque concentration. Testées après 18 h d'incubation (37°, dans un mélange air-10 % C02), les levures se multiplient d'abord au sein des cellules hôtes, puis dans le milieu extracellulaire. Le taux de macrophages infectés est alors de 75 % chez les témoins. Une cellule peut contenir de 1 à plus de 20 Candida/cellule, la majorité contient de 2 à 6 levures/cellule. Le milieu de culture contient 10^8 Candida extracellulaires/ml (comptage dans une cellule de Burker).
L'activité d'une drogue encapsulée ou non dans les LDL ou Ac-LDL par rapport à un antifongique de référence, le kétoconazole (K), est déterminé par la concentration micromolaire en drogue réduisant de 50 % le nombre de macrophages infectés par les Candida (=C150). Signalons que parallèlement à la réduction au cours du traitement, du taux de cellules infectées, le nombre de Candida par macrophage infecté diminue fortement (de 1 à 3 levures/cellule).
Le milieu de culture est RPMI + glutamine 2 mM + Hepes 10 mM + 2 % de sérum de veau foetal.

[1] = Incorporation of antifungal agent into LDL by NaDoc dissociation-reconstitution; format: physicochemical; settings: 1,6 mg LDL, 482 µg of agent, dialysis
Procedure: On ajoute à 1,6 mg de LDL préalablement dialysées contre le tampon C, 10 mg de NaDoc solide et on laisse réagir 30 minutes à température ambiante. On ajoute à la préparation 2,8 ml d'une solution NaDoc 20 mM, Na2COs 50 mM, NaCi 50 mM, pH 10 contenant 482 µg de CT4000A ou 482 µg de CT040013. Les échantillons sont dialysés à 4° C contre trois fois 1 litre de tampon B.
Le pourcentage de récupération en LDL, en CT040013 et en NaDoc est déterminé au terme du processus de reconstitution (figure 13).
Il est également possible de rapporter la masse de substance incorporée par mole de LDL. Les résultats obtenus pour le CT04000A et la CT040013 sont respectivement de 0,4 et de 208 moles incorporés par mole de LDL.

macrophages J77468 = experiment: Toxicity for J77468 macrophages (MTT reduction); format: cell-based, murine; settings: for % de viabilité cellulaire*: 18 h, MTT
Procedure: as §1
La viabilité des macrophages J77468 cultivés dans du milieu contenant l'agent antifongique encapsulé ou non dans les LDL figure au Tableau 5. K et K01 sont toxiques aux concentrations nécessaires pour réduire de 50 % l'infection intracellulaire (C1250) contrairement au LDL-K01 pour lequel aucune toxicité n'a pu être détectée.

C. tropicalis = experiment: Extracellular infection in the infected-macrophage model; format: cell-based; settings: Candida tropicalis, read-out: CIext50^(a)
Procedure: as §1, §2, §3, §4
L'action des AF encapsulés sur une infection extracellulaire peut être évaluée de deux manières : d'une part en déterminant le nombre de Candida extracellulaires dans un modèle d'infection intracellulaire (voir VIII § 1.1.), d'autre part en mesurant la concentration minimale inhibitrice (CMI) de ces composés par la méthode de dilutions successives dans des boîtes à multipuits (milieu RPMI).

[2] = Incorporation of cytotoxic agent into LDL with submicellar NaDOC; format: physicochemical
Procedure: Les LDL isolées sur sépharose CL-4B sont dialysées pendant 24 heures à 4° C contre un tampon C.
L'agent thérapeutique est solubilisé dans un solvant organique à raison de 1 mg par ml. 100 µL de cette solution sont évaporés sous Argon dans un tube à essai. On ajoute au résidu sec, 2 ml de la solution de LDL et du NaDOC de façon à atteindre une concentration finale de 1 à 5 mM selon l'agent thérapeutique considéré. […]
Au terme de l'incubation, l'échantillon est filtré sur un filtre Millipore 0,45 µm. Le NaDOC est ensuite éliminé par chromatographie sur gel P6 (Biorard®) préalablement équilibré avec un tampon C.
La concentration en ApoB et en agent thérapeutique est déterminée sur chaque fraction.Les fractions correspondant aux LDL sont mises en commun et dialysées contre un tampon τrisHCl 10 mM NaCI 0,15 M EDTA 0,3 mM pH 7,4 pendant 24 heures à 4°C.
L'ensemble du procédé décrit en IV-1 a été appliqué à un dérivé VINCA ALCALOIDE liposoluble : le "C91 base": (4-désacétyl-vinblastine C-3N-dodécyl-carboxamide). La concentration en NaDOC utilisée lors de l'incubation a été ajustée à 2 mM final.
Si on précipite sélectivement les LDL, plus de 99 % du C91 base se retrouve dans le culot. On confirme ainsi que l'agent thérapeutique est bien associé aux LDL. On appellera cette préparation : LDL-C91. […]

IC50 (Candida tropicalis; Candida tropicalis, Macrophage, micromolar concentration reducing infected macrophages by 50 %, 18 h, read-out: CI50 (the source's name)) | moles incorporés par mole de LDL [1] | IC50 (C. tropicalis; addition de 2 % Pl.H. (plasma humain)) | IC50 (C. tropicalis; addition de 2 % SVF (sérum de veau foetal)) | Compound | CI50 K/AF (Candida tropicalis) | toxicité aux concentrations nécessaires pour réduire de 50 % l'infection intracellulaire (macrophages J77468) | % de viabilité cellulaire* (macrophages J77468; Concentration 0,78 µM) | % de viabilité cellulaire* (macrophages J77468; Concentration 1,56 µM) | % de viabilité cellulaire* (macrophages J77468; Concentration 3,13 µM) | % de viabilité cellulaire* (macrophages J77468; Concentration 6,25 µM) | % de viabilité cellulaire* (macrophages J77468; Concentration 12,50 µM) | % de viabilité cellulaire* (macrophages J77468; Concentration 25,00 µM) | % de viabilité cellulaire* (macrophages J77468; Concentration 50,00 µM) | % de viabilité cellulaire* (macrophages J77468; Concentration 100,00 µM, versus untreated control) | nombre de molécules de drogue incorporées par molécule de LDL ([2]; 2 mM en NaDOC, temps d'incubation de 60 heures (3 heures à 25° C + 57 heures à 4°C)) | part retrouvée dans le culot après précipitation sélective des LDL ([2]; NaDOC 2 mM)
52300 nM | 0,4 moles incorporés par mole de LDL | 100 nM | 100 nM | CC(=O)N1CCN(c2ccc(OC[C@H]3CO[C@](Cn4ccnc4)(c4ccc(Cl)cc4Cl)O3)cc2)CC1 [K, reference compound] | 1 | toxiques | 85,16% | 86,67% | 64,56% | 50,52% | 16,40% | 3,16% | 3,50% | 1,75% | – | –
– | – | – | – | 4-désacétyl-vinblastine C-3N-dodécyl-carboxamide [C91 base] | – | – | – | – | – | – | – | – | – | – | 70 | > 99%

Source: EP0277849A1, “Incorporation of one or more lipophilic, active principles into lipoproteins, lipoproteins obtained and pharmaceutical compositions containing them” (IRE-CELLTARG S.A., priority 1987, dated 1988)
